For 21 compounds, IC50 results are on record in patent publication US11420970B1 (NOVARTIS AG, priority 2019, dated 2022).

Where two headings read alike, the source gives them in different places.

Assay [1] deals with cellular H3K36me2 level in thyroid carcinoma cell line CGTH-W-1 (NSD2 E1099K). Kind of assay: H3K36me2 cellular ELISA assay in CGTH-W-1 line. The class given is cell-based. The settings on record: Homo sapiens, CGTH-W-1, 72 h, read-out: H3K36me2 ELISA in CGTH-W-1. The method in brief: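 After 72 h compound treatment of NSD2 E1099K-mutant CGTH-W-1 cells, H3K36me2 and total H3 were quantified by ELISA with chemiluminescent read-out. A parallel-seeded plate gave cell viability by CellTiter-Glo.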
A general note: ELISA stands for enzyme-linked immunosorbent assay.

Assay [2] relates to cellular H3K36me2 level in multiple myeloma cell line KMS11 (t(4;14)+). Kind of assay: H3K36me2 cellular ELISA assay in KMS11-Par line. The class given is cell-based. Conditions: Homo sapiens, KMS-11; KMS11-Par line, ELISA, 72 hours; read-out: H3K36me2 ELISA in KMS11-Par. The method in brief:
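After 72 h compound exposure, HCl-extracted histones from KMS11 (t(4;14)+) cells were probed by ELISA for H3K36me2 against total H3 with a chemiluminescence read-out. Cells were plated at 1,250/well in Opti-MEM plus B-27 and N2 the day before. A parallel CellTiter-Glo plate tracked viability.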

In another assay the target is NSD2 [1-1365] (Homo sapiens (Human), UniProt O96028). Kind of assay: LC-MS/MS-based NSD2 enzymatic assay (SAH production). It counts as biochemical. In short, it runs like this: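 SAH formed was measured by LC-MS/MS using d4-SAH as internal standard and an SAH calibration curve. Compounds were preincubated 20 min with NSD2 [1-1365] and SAM; mouse-liver nucleosome then started a 90 min room-temperature reaction (8 nM enzyme, 1 μM SAM, 400 nM nucleosome final, pH 8.0), stopped with TFA.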
Chain of NSD2 [1-1365] (O96028 whole entry): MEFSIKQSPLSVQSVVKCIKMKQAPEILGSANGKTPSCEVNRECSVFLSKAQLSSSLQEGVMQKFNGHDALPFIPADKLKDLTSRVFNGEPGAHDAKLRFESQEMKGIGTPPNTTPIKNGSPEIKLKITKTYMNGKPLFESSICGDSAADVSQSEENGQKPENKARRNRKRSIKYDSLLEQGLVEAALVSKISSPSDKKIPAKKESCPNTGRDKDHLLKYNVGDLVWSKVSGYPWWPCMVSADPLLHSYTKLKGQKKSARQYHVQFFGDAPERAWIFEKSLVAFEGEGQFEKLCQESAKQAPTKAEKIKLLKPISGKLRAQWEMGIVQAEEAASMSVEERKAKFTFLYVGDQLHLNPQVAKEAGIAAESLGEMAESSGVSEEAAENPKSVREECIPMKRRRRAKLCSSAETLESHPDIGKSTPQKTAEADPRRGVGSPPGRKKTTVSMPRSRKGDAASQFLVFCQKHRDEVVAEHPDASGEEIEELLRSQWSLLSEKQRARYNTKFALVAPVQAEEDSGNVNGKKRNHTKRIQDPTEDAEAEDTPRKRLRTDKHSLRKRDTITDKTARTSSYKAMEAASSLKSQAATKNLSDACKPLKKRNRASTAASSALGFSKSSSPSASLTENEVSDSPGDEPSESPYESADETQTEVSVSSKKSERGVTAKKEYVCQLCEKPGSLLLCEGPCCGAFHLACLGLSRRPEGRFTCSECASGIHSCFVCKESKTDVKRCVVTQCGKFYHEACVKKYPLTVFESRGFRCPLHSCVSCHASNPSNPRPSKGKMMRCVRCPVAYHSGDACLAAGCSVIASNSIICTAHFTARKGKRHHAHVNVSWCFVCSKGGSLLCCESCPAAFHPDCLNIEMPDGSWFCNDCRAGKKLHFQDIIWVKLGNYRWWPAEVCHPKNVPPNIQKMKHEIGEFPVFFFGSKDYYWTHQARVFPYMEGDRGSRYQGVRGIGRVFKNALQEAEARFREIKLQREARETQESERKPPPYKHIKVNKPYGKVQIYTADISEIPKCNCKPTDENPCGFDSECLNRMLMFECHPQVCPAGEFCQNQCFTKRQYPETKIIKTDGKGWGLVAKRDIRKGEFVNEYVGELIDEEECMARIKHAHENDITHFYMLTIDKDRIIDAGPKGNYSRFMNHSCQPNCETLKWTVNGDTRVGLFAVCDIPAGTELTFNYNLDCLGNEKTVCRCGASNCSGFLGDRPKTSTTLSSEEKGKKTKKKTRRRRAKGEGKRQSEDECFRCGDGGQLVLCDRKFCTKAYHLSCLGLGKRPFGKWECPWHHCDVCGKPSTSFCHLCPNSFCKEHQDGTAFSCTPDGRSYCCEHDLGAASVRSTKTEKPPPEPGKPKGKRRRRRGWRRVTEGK

As for `COc1c(F)cc(-c2cc(Cn3cnc4c(N)ncnc43)c(N3CCC[C@](N)(c4cccc(Cl)n4)C3)cn2)cc1F` [Example 233, (R)-9-((5-(3-amino-3-(6-chloropyridin-2-yl)piperidin-1-yl)-2-(3,5-difluoro-4-methoxyphenyl)pyridin-4-yl)methyl)-9H-purin-6-amine], the values for the IC50 (in assay [1]; in assay [2]; on NSD2 [1-1365] (read-out: NSD2 IC50)) were 341 nM, 1100 nM and 1 to 10 nM, respectively.

As to `CC(O)c1ccc([C@@]2(N)CCCN(c3cnc(-c4ccc(F)c(F)c4)cc3Cn3cnc4c(N)ncnc43)C2)nc1Cl` (stereo partly drawn) [Example 234, 1-(6-((R)-3-amino-1-(4-((6-amino-9H-purin-9-yl)methyl)-6-(3,4-difluorophenyl)pyridin-3-yl)piperidin-3-yl)-2-chloropyridin-3-yl)ethan-1-ol], the IC50 in assay [1] was 1620 nM; in assay [2], 5990 nM; at NSD2 [1-1365] (read-out: NSD2 IC50) it was 10 to 1000 nM.

For `COc1cc(F)nc([C@@]2(N)CCCN(c3cnc(-c4ccc(F)c(F)c4)cc3Cn3cnc4c(N)ncnc43)C2)c1` [Example 235, (R)-9-((5-(3-amino-3-(6-fluoro-4-methoxypyridin-2-yl)piperidin-1-yl)-2-(3,4-difluorophenyl)pyridin-4-yl)methyl)-9H-purin-6-amine], the IC50 is 705 nM in assay [1], 970 nM in assay [2] and 1 to 10 nM on NSD2 [1-1365] (read-out: NSD2 IC50).

`COc1cc(F)c(-c2cc(Cn3cnc4c(N)ncnc43)c(N3CCC[C@](N)(c4cccc(Cl)n4)C3)cn2)c(F)c1` [Example 236, (R)-9-((5-(3-amino-3-(6-chloropyridin-2-yl)piperidin-1-yl)-2-(2,6-difluoro-4-methoxyphenyl)pyridin-4-yl)methyl)-9H-purin-6-amine]: the figures for the IC50 (in assay [1]; in assay [2]; on NSD2 [1-1365] (read-out: NSD2 IC50)) were 1390 nM, 6300 nM and 10 to 1000 nM, respectively.

For `Nc1ncnc2c1ncn2Cc1cc(-c2cc(F)c(F)cc2F)ncc1N1CCC[C@](N)(c2cccc(Cl)n2)C1` [Example 237], the IC50 in assay [1] is 825 nM; in assay [2], 2020 nM; at NSD2 [1-1365] (read-out: NSD2 IC50), 10 to 1000 nM.

Regarding `Nc1ncnc2c1ncn2Cc1cc(-c2ccc(F)cc2F)ncc1N1CCC[C@](N)(c2cccc(Cl)n2)C1` [Example 238, (R)-9-((5-(3-amino-3-(6-chloropyridin-2-yl)piperidin-1-yl)-2-(2,4-difluorophenyl)pyridin-4-yl)methyl)-9H-purin-6-amine], the IC50 in assay [1] is 588 nM; in assay [2], 1340 nM; on NSD2 [1-1365] (read-out: NSD2 IC50), 1 to 10 nM.

For `Nc1ncnc2c1ncn2Cc1cc(-c2ccc(F)c(F)c2)ncc1N1CCC[C@](N)(c2nc(F)ccc2O)C1` [Example 239, (R)-2-(3-amino-1-(4-((6-amino-9H-purin-9-yl)methyl)-6-(3,4-difluorophenyl)pyridin-3-yl)piperidin-3-yl)-6-fluoropyridin-3-ol], the IC50 is 353 nM in assay [1], 1540 nM in assay [2] and 1 to 10 nM at NSD2 [1-1365] (read-out: NSD2 IC50).

Consider `Nc1ncnc2c1ncn2Cc1cc(-c2cnc(F)c(F)c2)ncc1N1CCCC(N)(c2cccc(Cl)n2)C1` (stereo not drawn) [Example 240, 9-((5-(3-amino-3-(6-chloropyridin-2-yl)piperidin-1-yl)-5′,6′-difluoro-[2,3′-bipyridin]-4-yl)methyl)-9H-purin-6-amine], for which the figures for the IC50 (in assay [1]; in assay [2]; at NSD2 [1-1365] (read-out: NSD2 IC50)) were 821 nM, 5930 nM and 10 to 1000 nM, respectively.

With `COc1ccc(-c2cc(Cn3cnc4c(N)ncnc43)c(N3CCC[C@](N)(c4ccc(F)c(C)n4)C3)cn2)cc1` [Example 241, (R)-9-((5-(3-amino-3-(5-fluoro-6-methylpyridin-2-yl)piperidin-1-yl)-2-(4-methoxyphenyl)pyridin-4-yl)methyl)-9H-purin-6-amine], the IC50 was 1190 nM in assay [1], 4080 nM in assay [2] and 10 to 1000 nM on NSD2 [1-1365] (read-out: NSD2 IC50).

With `COc1ccc(-c2cc(Cn3cnc4c(N)ncnc43)c(N3CCC[C@](N)(c4cccc(Cl)n4)C3)cn2)c(F)c1F` [Example 242, (R)-9-((5-(3-amino-3-(6-chloropyridin-2-yl)piperidin-1-yl)-2-(2,3-difluoro-4-methoxyphenyl)pyridin-4-yl)methyl)-9H-purin-6-amine], the IC50 in assay [1] was 2710 nM; in assay [2], 8190 nM; on NSD2 [1-1365] (read-out: NSD2 IC50), 10 to 1000 nM.

Regarding `COc1cnc(-c2cc(Cn3cnc4c(N)ncnc43)c(N3CCC[C@](N)(c4cccc(Cl)n4)C3)cn2)cc1F` [Example 243, (R)-9-((5-(3-amino-3-(6-chloropyridin-2-yl)piperidin-1-yl)-4′-fluoro-5′-methoxy-[2,2′-bipyridin]-4-yl)methyl)-9H-purin-6-amine], the results for the IC50 (in assay [1]; in assay [2]; on NSD2 [1-1365] (read-out: NSD2 IC50)) were 541 nM, 2440 nM and 1 to 10 nM, respectively.

For the compound `Nc1ncnc2c1ncn2Cc1cc(-c2cnc(O)c(F)c2)ncc1N1CCCC(N)(c2cccc(Cl)n2)C1` (stereo not drawn) [Example 244, 5-(3-amino-3-(6-chloropyridin-2-yl)piperidin-1-yl)-4-((6-amino-9H-purin-9-yl)methyl)-5′-fluoro-[2,3′-bipyridin]-6′-ol], the IC50 in assay [1] was 12500 nM; in assay [2], 33300 nM; at NSD2 [1-1365] (read-out: NSD2 IC50) it was 10 to 1000 nM.

Turning to `CCc1nccc([C@@]2(N)CCCN(c3cnc(-c4ccc(F)c(F)c4)cc3Cn3cnc4c(N)ncnc43)C2)n1` [Example 251, (R)-9-((5-(3-amino-3-(2-ethylpyrimidin-4-yl)piperidin-1-yl)-2-(3,4-difluorophenyl)pyridin-4-yl)methyl)-9H-purin-6-amine], the results for the IC50 (in assay [1]; in assay [2]; on NSD2 [1-1365] (read-out: NSD2 IC50)) were 440 nM, 1520 nM and 10 to 1000 nM, respectively.

Consider `Nc1ncnc2c1ncn2Cc1cc(-c2ccc(F)c(F)c2)ncc1N1CCC[C@](N)(c2ccc[nH]c2=O)C1` [Example 272, (S)-3-(3-amino-1-(4-((6-amino-9H-purin-9-yl)methyl)-6-(3,4-difluorophenyl)pyridin-3-yl)piperidin-3-yl)pyridin-2(1H)-one], for which the IC50 was 1750 nM in assay [1], 10500 nM in assay [2] and 1 to 10 nM at NSD2 [1-1365] (read-out: NSD2 IC50).

For the compound `Cn1ncc([C@@]2(N)CCCN(c3cnc(-c4ccc(F)c(F)c4)cc3Cn3cnc4c(N)ncnc43)C2)n1` [Example 283, (R)-9-((5-(3-amino-3-(2-methyl-2H-1,2,3-triazol-4-yl)piperidin-1-yl)-2-(3,4-difluorophenyl)pyridin-4-yl)methyl)-9H-purin-6-amine], the values for the IC50 (in assay [1]; in assay [2]; against NSD2 [1-1365] (NSD2 IC50)) were 110 nM, 1020 nM and 1 to 10 nM, respectively.

Take `Cc1cc([C@@]2(N)CCCN(c3cnc(-c4ccc(F)c(F)c4)cc3Cn3cnc4c(N)ncnc43)C2)no1` [Example 284, (R)-9-((5-(3-amino-3-(5-methylisoxazol-3-yl)piperidin-1-yl)-2-(3,4-difluorophenyl)pyridin-4-yl)methyl)-9H-purin-6-amine]: the IC50 is 111 nM in assay [1], 254 nM in assay [2] and 1 to 10 nM at NSD2 [1-1365] (read-out: NSD2 IC50).

In the case of `Nc1ncnc2c1ncn2Cc1cc(-c2ccc(F)c(F)c2)ncc1N1CCC[C@](N)([C@@H](F)CO)C1` [Example 285, (R)-2-((R)-3-amino-1-(4-((6-amino-9H-purin-9-yl)methyl)-6-(3,4-difluorophenyl)pyridin-3-yl)piperidin-3-yl)-2-fluoroethan-1-ol], the IC50 in assay [1] is 43.7 nM; in assay [2], 885 nM; on NSD2 [1-1365] (read-out: NSD2 IC50), 1 to 10 nM.

In the case of `Nc1ncnc2c1ncn2Cc1cc(-c2cc(F)c(F)cc2F)ncc1N1CCC[C@](N)([C@@H](F)CO)C1` [Example 286, (R)-2-((R)-3-amino-1-(4-((6-amino-9H-purin-9-yl)methyl)-6-(2,4,5-trifluorophenyl)pyridin-3-yl)piperidin-3-yl)-2-fluoroethan-1-ol], the IC50 is 5.9 nM in assay [1], 655 nM in assay [2] and 1 to 10 nM at NSD2 [1-1365] (read-out: NSD2 IC50).

For the compound `C[C@H]1COC[C@@H]([C@@]2(N)CCCN(c3cnc(-c4ccc(F)c(F)c4)cc3Cn3cnc4c(N)ncnc43)C2)O1` [Example 288, 9-((5-((R)-3-amino-3-((2R,6S)-6-methyl-1,4-dioxan-2-yl)piperidin-1-yl)-2-(3,4-difluorophenyl)pyridin-4-yl)methyl)-9H-purin-6-amine], the IC50 in assay [1] is 2390 nM; in assay [2], 5720 nM; at NSD2 [1-1365] (read-out: NSD2 IC50), 10 to 1000 nM.

On to `Nc1ncnc2c1ncn2Cc1cc(-c2ccc(F)c(F)c2)ncc1N1CCC[C@](N)([C@@H]2COCCO2)C1` [Example 289, 9-((5-((R)-3-amino-3-((R)-1,4-dioxan-2-yl)piperidin-1-yl)-2-(3,4-difluorophenyl)pyridin-4-yl)methyl)-9H-purin-6-amine], for which the values for the IC50 (in assay [1]; in assay [2]; on NSD2 [1-1365] (read-out: NSD2 IC50)) were 492 nM, 2670 nM and 1 to 10 nM, respectively.

As for `Nc1ncnc2c1ncn2Cc1cc(-c2cc(F)c(F)cc2F)ncc1N1CCC[C@](N)([C@@H]2COCCO2)C1` [Example 290, 9-((5-((R)-3-amino-3-((R)-1,4-dioxan-2-yl)piperidin-1-yl)-2-(2,4,5-trifluorophenyl)pyridin-4-yl)methyl)-9H-purin-6-amine], the figures for the IC50 (in assay [1]; in assay [2]; on NSD2 [1-1365] (read-out: NSD2 IC50)) were 421 nM, 954 nM and 10 to 1000 nM, respectively.
